The text below walks through data of ChEMBL document CHEMBL1140475, “Structure-activity relationship (SAR) investigations of substituted imidazole analogs as TRPV1 antagonists” (Bioorg Med Chem Lett, 2007).

For data set [1], the target named is T1, Transient receptor potential cation channel subfamily V member 1 (Rattus norvegicus, UniProt O35433). Put plainly: Antagonist activity at rat TRPV1 expressed in CHO cells assessed blocking of acid-induced calcium influx at pH 5. Format: functional, cell-based.
T1 sequence (O35433 whole entry): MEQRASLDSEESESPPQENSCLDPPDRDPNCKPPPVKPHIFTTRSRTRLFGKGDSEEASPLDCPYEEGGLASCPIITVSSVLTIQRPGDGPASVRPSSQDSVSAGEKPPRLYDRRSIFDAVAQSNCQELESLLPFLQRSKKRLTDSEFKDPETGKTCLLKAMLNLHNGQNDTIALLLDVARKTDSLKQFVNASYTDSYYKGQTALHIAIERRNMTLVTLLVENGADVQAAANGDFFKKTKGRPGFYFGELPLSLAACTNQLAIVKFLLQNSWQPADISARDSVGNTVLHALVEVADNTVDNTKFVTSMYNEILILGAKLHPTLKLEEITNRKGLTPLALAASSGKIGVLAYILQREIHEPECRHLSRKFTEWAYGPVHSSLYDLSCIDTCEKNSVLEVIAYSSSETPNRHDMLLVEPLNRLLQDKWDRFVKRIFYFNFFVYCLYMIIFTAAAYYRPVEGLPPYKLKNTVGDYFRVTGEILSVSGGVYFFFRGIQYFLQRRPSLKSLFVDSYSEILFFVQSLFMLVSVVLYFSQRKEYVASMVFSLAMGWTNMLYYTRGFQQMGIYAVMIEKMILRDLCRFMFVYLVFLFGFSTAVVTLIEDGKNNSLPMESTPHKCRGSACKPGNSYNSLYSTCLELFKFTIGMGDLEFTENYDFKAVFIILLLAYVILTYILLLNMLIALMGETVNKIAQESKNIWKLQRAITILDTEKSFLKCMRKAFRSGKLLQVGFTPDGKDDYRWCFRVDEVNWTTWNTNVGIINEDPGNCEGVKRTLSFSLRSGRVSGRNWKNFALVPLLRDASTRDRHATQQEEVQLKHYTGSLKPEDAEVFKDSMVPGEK
For data set [2], the target named is T1, Transient receptor potential cation channel subfamily V member 1. Put plainly: Antagonist activity at rat TRPV1 expressed in CHO cells assessed blocking of capsaicin-induced calcium influx. Format: functional, cell-based.
A short description of data set [3]: AUC (0 to infinity) in Sprague-Dawley rat at 1 mg/kg, iv. The note with it: plasma. Set-up: time infinity, dose 1 mg/kg, route intravenous. Format: ADME, organism-based.
The nature of data set [4]: Clearance in Sprague-Dawley rat at 1 mg/kg, iv. Format: ADME, organism-based. Set-up: dose 1 mg/kg, route intravenous. As to conditions: in vivo.
Data set [5] is described as follows: Half life in Sprague-Dawley rat at 1 mg/kg, iv. It is filed as ADME, organism-based. Set-up: dose 1 mg/kg, route intravenous. The note with it: in vivo.
Data set [6] in a line: Volume of distribution at steady state in Sprague-Dawley rat at 1 mg/kg, iv. Format: ADME, organism-based. The note with it: in vivo, read-out: Vdss. Set-up: dose 1 mg/kg, route intravenous.
The nature of data set [7]: Cmax in Sprague-Dawley rat at 5 mg/kg, po. Format: ADME, organism-based. Set-up: dose 5 mg/kg, route oral. The note with it: in vivo.
Data set [8] is described as follows: Tmax in Sprague-Dawley rat at 5 mg/kg, po. It is filed as ADME, organism-based. Set-up: dose 5 mg/kg, route oral. As to conditions: in vivo.
Data set [9] is described as follows: AUC (0 to infinity) in Sprague-Dawley rat at 5 mg/kg, po. It is filed as ADME, organism-based. Set-up: time infinity, dose 5 mg/kg, route oral. The note with it: plasma.
Data set [10] can be described thus: Bioavailability in Sprague-Dawley rat at 5 mg/kg. The note with it: in vivo. Format: ADME, organism-based.

Turning to `Fc1cc(-c2nc(N3CCN(c4ncccc4C(F)(F)F)CC3)[nH]c2-c2cc(F)c(F)c(F)c2)cc(F)c1F`, the IC50 in data set [1] is 0.032 µM; in data set [2] it was 0.044 µM.

For the molecule `Cc1nc(N2CCN(c3ncccc3C(F)(F)F)CC2)[nH]c1-c1ccc(C(F)(F)F)cc1`, the IC50 in [1] is more than 4 µM; in data set [2] it was 0.628 µM.

On to `C[C@@H]1CN(c2ncc(CO)cc2Cl)CCN1c1nc(-c2cc(F)c(F)c(F)c2)c(-c2ccc(C(F)(F)F)cc2)[nH]1`, for which the IC50 in [1] came to 0.004 µM; in [2], 0.001 µM. The area under the curve AUC(0-inf) in data set [3] was found to be 1.23 µg·h/mL; in data set [9] it was 2.46 µg·h/mL. In addition, the clearance in [4] was 0.8 L/h/kg. The molecule further showed a half-life in data set [5] of 6.3 h. Besides, in data set [6], the Vd amounted to 5.4 L/kg. Also, in data set [7], the highest level (Cmax) was 0.347 µg/mL. In addition, the Tmax in [8] was determined as 4.7 h. In data set [10], this molecule returned a bioavailability of 40%.

Take `Fc1cc(-c2nc(N3CCN(c4ncccc4C(F)(F)F)CC3)[nH]c2-c2ccc(C(F)(F)F)cc2)cc(F)c1F`: the IC50 in [1] worked out at 0.02 µM; in data set [2], 0.007 µM. In addition, the values for the total exposure AUC(0-inf) in data set [3] and in [9] were 0.529 µg·h/mL and 0.08 µg·h/mL, respectively. The same molecule showed a clearance in [4] of 1.9 L/h/kg. For the same molecule, in data set [5], the half-life is 1.9 h. Moreover, in [6], the Vd was found to be 1.7 L/kg. In data set [7], the concentration peaked (Cmax) at 0.017 µg/mL. Moreover, in data set [8], the Tmax is 1 h. In data set [10], this molecule yielded a bioavailability of 3%.

In the case of `O=C(NCC1CCCCN1)c1nc(N2CCN(c3ncccc3C(F)(F)F)CC2)[nH]c1-c1ccc(C(F)(F)F)cc1` (stereo not given), the figures for the concentration for half-maximal inhibition (IC50) in data set [1] and in data set [2] were more than 4 µM and 2.95 µM, respectively.

In the case of `FC(F)(F)c1cccc(-c2[nH]c(N3CCN(c4ncccc4C(F)(F)F)CC3)nc2-c2ccccc2)c1`, the IC50 in data set [1] amounted to 0.165 µM; in data set [2], 1.24 µM.

Consider `C[C@@H]1CN(c2ncccc2C(F)(F)F)CCN1c1nc(-c2ccccc2)c(-c2ccc(C(F)(F)F)cc2)[nH]1`, for which the IC50 was 0.341 µM in data set [1] and 0.117 µM in [2].

Turning to `OCc1cnc(N2CCN(c3nc(-c4ccccc4)c(-c4ccc(C(F)(F)F)cc4)[nH]3)CC2)c(Cl)c1`, the IC50 came to 0.16 µM in data set [1] and 0.09 µM in [2].

Regarding `FC(F)(F)c1ccc(-c2nc(N3CCN(c4ncccc4C(F)(F)F)CC3)[nH]c2Cl)cc1`, the values for the half-maximal inhibitory concentration (IC50) in data set [1] and in data set [2] were more than 4 µM and 0.16 µM, respectively.

Take `CC(C)CN1CCCCC1CNC(=O)c1nc(N2CCN(c3ncccc3C(F)(F)F)CC2)[nH]c1-c1ccc(C(F)(F)F)cc1` (stereo not given): the IC50 was more than 4 µM in [1] and 1.9 µM in data set [2].

For `Fc1cc(F)cc(-c2nc(N3CCN(c4ncccc4C(F)(F)F)CC3)[nH]c2-c2ccc(C(F)(F)F)cc2)c1`, the IC50 in data set [1] worked out at 0.085 µM; in data set [2], 0.035 µM.

As for `CC(C)N1CCN(C(=O)c2nc(N3CCN(c4ncccc4C(F)(F)F)CC3)[nH]c2-c2ccc(C(F)(F)F)cc2)CC1`, the IC50 in data set [1] was determined as 1 µM; in [2] it was 0.7 µM.

As to `FC(F)(F)c1ccc(-c2nc(N3CCN(c4ncccc4C(F)(F)F)CC3)[nH]c2-c2ccc(C(F)(F)F)cc2)cc1`, the IC50 worked out at 0.146 µM in data set [1] and 0.573 µM in data set [2].

For the molecule `FC(F)(F)c1ccc(-c2c[nH]c(N3CCN(c4ncccc4C(F)(F)F)CC3)n2)cc1`, the 50% inhibitory concentration (IC50) is more than 4 µM in data set [1] and 0.861 µM in data set [2].

For `FC(F)(F)c1ccc(-c2[nH]c(N3CCN(c4ncccc4C(F)(F)F)CC3)nc2-c2ccccc2)cc1`, the IC50 was 0.216 µM in data set [1] and 0.107 µM in data set [2]. The total exposure AUC(0-inf) in data set [3] turned out to be 0.105 µg·h/mL; in data set [9], 0.03 µg·h/mL. In addition, the clearance in data set [4] is 10 L/h/kg. The molecule further had a half-life in [5] of 2.3 h. Moreover, the Vd in data set [6] amounted to 5 L/kg. The same molecule displayed a Cmax in data set [7] of 0.013 µg/mL. The Tmax in [8] was found to be 1.3 h. Also, the bioavailability in data set [10] worked out at 6%.

Take `C[C@@H]1CN(c2ncc(CO)cc2Cl)CCN1c1nc(-c2ccccc2)c(-c2ccc(C(F)(F)F)cc2)[nH]1`: the IC50 came to 0.029 µM in [1] and 0.026 µM in data set [2].

For `COC(=O)c1nc(N2CCN(c3ncccc3C(F)(F)F)CC2)[nH]c1-c1ccc(C(F)(F)F)cc1`, the values for the IC50 in data set [1] and in data set [2] were 0.18 µM and 1.17 µM, respectively.

Turning to `CCN1CCCC1CNC(=O)c1nc(N2CCN(c3ncccc3C(F)(F)F)CC2)[nH]c1-c1ccc(C(F)(F)F)cc1` (stereo not given), the IC50 was 3.3 µM in data set [1] and 4.1 µM in [2].

As usually defined, the IC50 is the point on the concentration scale where inhibition reaches its midpoint. By AUC(0-inf) is commonly meant total exposure, with the tail of the curve extrapolated. High values mean more exposure, low ones less exposure. The clearance is a measure of how efficiently the substance is removed, as volume per time. A lower clearance goes with inefficient removal. Usually half-life stands for the time in which the quantity being followed falls by half. Lower therefore signals rapid decline. The Cmax is the highest concentration seen after dosing. As usually defined, the Tmax is the time at which the peak concentration occurs. Broadly, the bioavailability is dose-corrected exposure relative to a reference, in per cent. Read a high bioavailability as good availability.
